Assay results as given in patent publication US20070071686A1, “Liquid preparation containing tobramycin” (Pari GmbH, priority 2003, published 2007).

Test: Physicochemical characterisation of tobramycin solutions (pH, osmolality, dynamic viscosity, surface tension)
Experimental: Thus, aqueous solutions of tobramycin with a pH of 6.0 to 6.5 have a 50% greater viscosity (about 2.9 mPa·s) at a concentration of active agent of 180 mg/ml compared to a solution with 100 mg/ml (about 1.8 mPa·s). […] Under standard conditions, the preparations according to the present invention have a viscosity of about 1.4 to 2.3 mPa·s, and preferably a viscosity in the range of about 1.6 to 2.0 mPa·s. A viscosity of about 1.8 mPa·s is most preferred.
11.08 g of tobramycin, 5.41 g of sulfuric acid (96%), 0.2 g of sodium chloride and 90.95 g of water for injection are used as starting materials. All steps are carried out under aseptic conditions and under nitrogen gas. The water is provided first, to which the sulfuric acid is added. Then sodium chloride and the active agent are added one after the other. The mixture is stirred until complete dissolution of all solid components as determined by visual control. This yields about 100 ml of a solution which has a pH of about 6.0, an osmolality of about 0.22 Osmol/l, a dynamic viscosity of about 1.9 mPa·s and a surface tension of about 71 mN/m. This solution is filtered to sterility and filled into an infusion bottle with a volume of 100 ml. This bottle is tightly closed with a pierceable elastomer stopper and secured with an aluminium cap.
10.88 g of tobramycin, 5.41 g of sulfuric acid (96%), 0.2 g sodium chloride, 0.1 g Tween® 80 and 90.95 g of water for injection are used as starting materials. All steps take place under aseptic conditions and nitrogen gas. The water is provided first to which the sulfuric acid is added. Subsequently, tobramycin is added and dissolved at room temperature. Sodium chloride and Tween® are added to this solution. The mixture is stirred until a clear solution is formed. This yields about 100 ml of a solution which has a pH of about 6.2, an osmolality of about 0.22 Osmol/l, a dynamic viscosity of about 1.9 mPa·s and a surface tension of about 43 mN/m. The solution is filtered to sterility and filled aseptically into single dose containers of polypropylene at 2 ml each. […]

viscosity (aqueous solution, pH 6.0 to 6.5, 100 mg/ml): about 1.8 mPa·s
viscosity (aqueous solution, pH 6.0 to 6.5, 180 mg/ml): about 2.9 mPa·s
viscosity (comparable aqueous solution, 120 mg/ml): about 2.1 mPa·s
Compound: NC[C@H]1O[C@H](O[C@H]2[C@H](O)[C@@H](O[C@H]3O[C@H](CO)[C@@H](O)[C@H](N)[C@H]3O)[C@H](N)C[C@@H]2N)[C@H](N)C[C@@H]1O [tobramycin, O-3-amino-3-desoxy-α-D-glucopyranosyl(1→4)-O-[2,6-diamino-2,3,6-tridesoxy-α-D-ribo-hexopyranosyl-(1→6)]-2-deoxystreptamine]
